ChEMBL document CHEMBL1201862, “PubChem BioAssay data set” (2004)
Where a name gives a salt, the structure may show the parent alone. Values belong to the compound of their own block, whether it stands above or below them. Calls of active or inactive are those of the source.

Key:
[1] = target: T1, Oxysterols receptor LXR-beta (Homo sapiens, UniProt P55055); type: functional, cell-based;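 also: Cell-based luminescence dose-response assay of agonist activity at LXR, run as a confirmatory counterscreen to a daf-12 agonist screen; agonist potency from rising luciferase signal of a Gal4-LXR reporter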
T1 sequence (P55055 whole entry): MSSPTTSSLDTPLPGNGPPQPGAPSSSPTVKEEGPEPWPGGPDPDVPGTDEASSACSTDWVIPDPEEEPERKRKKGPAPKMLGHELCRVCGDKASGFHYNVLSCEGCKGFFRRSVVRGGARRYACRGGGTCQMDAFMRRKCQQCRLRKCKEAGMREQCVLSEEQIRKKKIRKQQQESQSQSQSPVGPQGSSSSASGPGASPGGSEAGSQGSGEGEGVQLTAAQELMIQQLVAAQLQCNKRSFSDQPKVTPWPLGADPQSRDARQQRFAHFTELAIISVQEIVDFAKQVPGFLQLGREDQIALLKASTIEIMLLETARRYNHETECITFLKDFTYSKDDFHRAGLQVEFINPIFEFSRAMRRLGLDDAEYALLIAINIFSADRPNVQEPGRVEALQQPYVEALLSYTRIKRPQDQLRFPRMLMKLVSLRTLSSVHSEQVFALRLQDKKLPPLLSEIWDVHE

[2] = cells
[3] = target: T2, Aminopeptidase N (Plasmodium falciparum FcB1/Columbia, UniProt O96935); test: malaria alanyl aminopeptidase activity blockers – biochemical, fluorogenic H-Leu-NHMec substrate, 1536-well (AID 1445); design: species or system Plasmodium falciparum 3D7, 3D7
T2 sequence (O96935 whole entry): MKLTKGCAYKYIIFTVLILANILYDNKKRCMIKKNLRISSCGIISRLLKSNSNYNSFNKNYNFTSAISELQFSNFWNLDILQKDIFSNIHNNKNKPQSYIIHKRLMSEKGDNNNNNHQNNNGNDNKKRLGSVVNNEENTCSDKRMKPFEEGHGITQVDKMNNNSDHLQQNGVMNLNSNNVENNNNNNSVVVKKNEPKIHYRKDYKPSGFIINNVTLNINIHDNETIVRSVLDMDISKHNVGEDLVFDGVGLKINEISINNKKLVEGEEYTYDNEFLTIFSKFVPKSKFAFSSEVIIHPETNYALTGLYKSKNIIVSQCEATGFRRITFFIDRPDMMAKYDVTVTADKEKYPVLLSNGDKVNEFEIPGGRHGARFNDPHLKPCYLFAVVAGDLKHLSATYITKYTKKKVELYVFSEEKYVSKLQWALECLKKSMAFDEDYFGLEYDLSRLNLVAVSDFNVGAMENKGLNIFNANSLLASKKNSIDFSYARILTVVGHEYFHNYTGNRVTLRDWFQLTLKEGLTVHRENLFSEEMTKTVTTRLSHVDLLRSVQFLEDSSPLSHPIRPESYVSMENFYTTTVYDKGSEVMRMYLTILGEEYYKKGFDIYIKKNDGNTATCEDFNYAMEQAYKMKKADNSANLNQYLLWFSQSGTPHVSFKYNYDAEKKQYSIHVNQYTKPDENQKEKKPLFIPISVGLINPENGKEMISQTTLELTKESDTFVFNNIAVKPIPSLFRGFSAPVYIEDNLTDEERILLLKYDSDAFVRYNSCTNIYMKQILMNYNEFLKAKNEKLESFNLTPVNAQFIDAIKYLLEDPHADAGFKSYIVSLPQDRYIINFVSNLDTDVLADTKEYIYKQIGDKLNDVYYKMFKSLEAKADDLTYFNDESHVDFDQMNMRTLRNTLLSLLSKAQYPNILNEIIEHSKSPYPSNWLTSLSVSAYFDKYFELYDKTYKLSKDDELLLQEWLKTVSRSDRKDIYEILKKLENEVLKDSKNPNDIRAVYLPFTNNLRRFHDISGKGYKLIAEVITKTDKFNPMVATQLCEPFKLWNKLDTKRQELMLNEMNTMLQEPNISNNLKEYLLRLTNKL

[4] = target: T1, Oxysterols receptor LXR-beta; test: LXR agonists, Gal4 luciferase reporter, dose response, counter-screen for ssDAF-12 agonist project, cell-based, luminescence, HEK293, S. stercoralis campaign (AID 720737); type: functional; details: read-out: IC50 (the source's name)
[5] = Luminescence-based cell-based high throughput dose response assay to identify activators of the DAF-12 from the parasite S. stercoralis (ssDAF-12).; type: functional
[6] = target: Voltage-dependent T-type calcium channel subunit alpha-1H (Homo sapiens, UniProt O95180); type: functional;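 also: channel activity triggered by adding a high calcium stimulation buffer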
Sequence of Voltage-dependent T-type calcium channel subunit alpha-1H (O95180 whole entry): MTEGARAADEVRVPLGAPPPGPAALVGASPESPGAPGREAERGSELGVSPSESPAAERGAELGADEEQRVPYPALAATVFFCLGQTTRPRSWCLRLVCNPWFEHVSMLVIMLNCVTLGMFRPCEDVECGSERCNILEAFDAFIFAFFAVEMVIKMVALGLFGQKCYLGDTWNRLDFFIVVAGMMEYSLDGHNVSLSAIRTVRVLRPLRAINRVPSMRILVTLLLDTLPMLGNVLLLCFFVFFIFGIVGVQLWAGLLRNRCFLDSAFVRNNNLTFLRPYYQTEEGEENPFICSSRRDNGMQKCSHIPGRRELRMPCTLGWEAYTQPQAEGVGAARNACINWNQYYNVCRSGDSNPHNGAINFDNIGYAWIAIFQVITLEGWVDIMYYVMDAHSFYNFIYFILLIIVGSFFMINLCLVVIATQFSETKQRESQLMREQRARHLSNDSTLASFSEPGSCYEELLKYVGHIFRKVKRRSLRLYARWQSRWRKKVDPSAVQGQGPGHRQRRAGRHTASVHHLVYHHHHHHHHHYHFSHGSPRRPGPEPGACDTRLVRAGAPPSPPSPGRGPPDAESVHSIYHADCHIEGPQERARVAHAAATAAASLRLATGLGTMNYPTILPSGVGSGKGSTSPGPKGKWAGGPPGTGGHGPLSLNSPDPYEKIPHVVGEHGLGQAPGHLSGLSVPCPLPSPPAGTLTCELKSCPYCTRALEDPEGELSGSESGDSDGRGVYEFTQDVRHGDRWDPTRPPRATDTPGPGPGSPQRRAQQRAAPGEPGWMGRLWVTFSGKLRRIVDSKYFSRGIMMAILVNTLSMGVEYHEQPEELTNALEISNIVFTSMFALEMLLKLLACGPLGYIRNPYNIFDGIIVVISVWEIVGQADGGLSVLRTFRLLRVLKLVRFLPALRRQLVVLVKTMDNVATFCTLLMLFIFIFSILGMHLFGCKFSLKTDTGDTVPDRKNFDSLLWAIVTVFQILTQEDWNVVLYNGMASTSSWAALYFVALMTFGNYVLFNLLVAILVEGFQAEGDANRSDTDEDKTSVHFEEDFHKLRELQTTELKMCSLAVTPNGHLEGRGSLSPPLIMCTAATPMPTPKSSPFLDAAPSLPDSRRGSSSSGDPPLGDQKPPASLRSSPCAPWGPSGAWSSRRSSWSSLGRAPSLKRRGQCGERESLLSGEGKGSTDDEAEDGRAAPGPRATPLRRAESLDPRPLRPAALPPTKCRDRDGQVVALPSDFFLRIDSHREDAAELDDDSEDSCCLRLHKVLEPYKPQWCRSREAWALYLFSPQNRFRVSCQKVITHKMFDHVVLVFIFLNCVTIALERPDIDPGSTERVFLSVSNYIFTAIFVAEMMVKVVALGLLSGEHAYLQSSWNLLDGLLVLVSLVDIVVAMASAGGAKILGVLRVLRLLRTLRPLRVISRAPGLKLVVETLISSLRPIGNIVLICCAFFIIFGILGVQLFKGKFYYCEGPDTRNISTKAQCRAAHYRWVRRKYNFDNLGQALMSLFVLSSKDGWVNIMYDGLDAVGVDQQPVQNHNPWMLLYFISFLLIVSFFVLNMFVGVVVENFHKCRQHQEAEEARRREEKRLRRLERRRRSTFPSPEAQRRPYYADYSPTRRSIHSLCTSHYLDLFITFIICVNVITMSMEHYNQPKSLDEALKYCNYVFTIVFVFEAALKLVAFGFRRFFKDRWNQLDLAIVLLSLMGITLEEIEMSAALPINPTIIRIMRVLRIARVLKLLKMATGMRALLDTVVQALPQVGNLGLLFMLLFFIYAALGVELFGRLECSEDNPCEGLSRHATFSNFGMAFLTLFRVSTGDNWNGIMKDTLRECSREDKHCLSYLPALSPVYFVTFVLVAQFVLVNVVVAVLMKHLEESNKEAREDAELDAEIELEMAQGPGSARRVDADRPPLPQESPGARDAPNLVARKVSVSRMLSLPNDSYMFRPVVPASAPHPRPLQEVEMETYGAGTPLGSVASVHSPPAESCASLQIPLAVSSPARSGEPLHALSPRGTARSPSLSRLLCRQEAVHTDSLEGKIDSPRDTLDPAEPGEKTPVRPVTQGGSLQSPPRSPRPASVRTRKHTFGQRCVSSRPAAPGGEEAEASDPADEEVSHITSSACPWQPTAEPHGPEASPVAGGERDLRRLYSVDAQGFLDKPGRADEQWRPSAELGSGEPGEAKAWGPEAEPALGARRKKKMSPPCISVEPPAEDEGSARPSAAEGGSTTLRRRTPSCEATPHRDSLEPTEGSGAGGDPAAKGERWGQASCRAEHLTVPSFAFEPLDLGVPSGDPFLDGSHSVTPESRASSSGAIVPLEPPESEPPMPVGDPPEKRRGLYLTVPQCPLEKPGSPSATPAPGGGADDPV

[7] = HIV-1 Vif–A3G interaction blockers – biochemical, TR-FRET, GST-Vif 1-94, biotin-A3G peptide, dose response retest, primary screen (AID 1117319); type: functional;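 also: TR-FRET signal of purified GST-Vif binding a biotinylated A3G peptide; inhibitors lower the FRET signal by blocking Vif and A3G binding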
[8] = target: Cytochrome P450 3A4 (Homo sapiens, UniProt P08684); details: Potency;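 also: confirmatory qHTS run detecting inhibitors and substrates of CYP3A4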
Sequence of Cytochrome P450 3A4 (P08684 whole entry): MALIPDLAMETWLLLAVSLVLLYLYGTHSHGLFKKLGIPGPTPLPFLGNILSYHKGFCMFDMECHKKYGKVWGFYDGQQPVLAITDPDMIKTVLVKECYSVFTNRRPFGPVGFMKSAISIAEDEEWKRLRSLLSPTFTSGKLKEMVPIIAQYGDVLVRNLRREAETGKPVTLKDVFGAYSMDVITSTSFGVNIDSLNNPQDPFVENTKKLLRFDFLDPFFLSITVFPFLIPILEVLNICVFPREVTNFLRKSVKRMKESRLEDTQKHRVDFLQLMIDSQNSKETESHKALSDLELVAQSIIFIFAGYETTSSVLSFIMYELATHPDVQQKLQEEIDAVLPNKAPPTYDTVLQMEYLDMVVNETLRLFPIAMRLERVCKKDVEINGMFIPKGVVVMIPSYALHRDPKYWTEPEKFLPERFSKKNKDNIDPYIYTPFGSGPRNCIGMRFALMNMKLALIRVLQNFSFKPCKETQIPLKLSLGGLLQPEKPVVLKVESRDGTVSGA

[9] = target: DNA dC->dU-editing enzyme APOBEC-3G (Homo sapiens, UniProt Q9HC16); test: Dose Response confirmation of small molecule APOBEC3G DNA Deaminase Inhibitors via a fluorescence-based single-stranded DNA deaminase assay. [Related pubchem assays (depositor defined):AID493012, AID493028]; type: functional
Sequence of DNA dC->dU-editing enzyme APOBEC-3G (Q9HC16 whole entry): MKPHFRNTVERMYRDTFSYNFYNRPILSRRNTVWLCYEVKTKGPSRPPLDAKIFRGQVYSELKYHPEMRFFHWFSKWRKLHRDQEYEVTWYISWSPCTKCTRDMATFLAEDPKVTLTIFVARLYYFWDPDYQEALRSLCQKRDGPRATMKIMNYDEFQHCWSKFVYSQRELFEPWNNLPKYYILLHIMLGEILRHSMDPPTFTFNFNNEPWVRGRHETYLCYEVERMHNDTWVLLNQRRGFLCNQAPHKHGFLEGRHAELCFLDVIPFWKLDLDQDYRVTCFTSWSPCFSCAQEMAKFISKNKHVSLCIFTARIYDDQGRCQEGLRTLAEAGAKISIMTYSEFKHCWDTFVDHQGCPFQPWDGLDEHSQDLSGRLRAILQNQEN

[10] = target: T3, Leucine aminopeptidase (Plasmodium falciparum 3D7, UniProt Q8IL11); test: P. falciparum M17LAP inhibitors, primary screen, biochemical, fluorogenic H-Leu-NHMec substrate, 1536-well (AID 1619); type: functional
T3 sequence (Q8IL11 whole entry): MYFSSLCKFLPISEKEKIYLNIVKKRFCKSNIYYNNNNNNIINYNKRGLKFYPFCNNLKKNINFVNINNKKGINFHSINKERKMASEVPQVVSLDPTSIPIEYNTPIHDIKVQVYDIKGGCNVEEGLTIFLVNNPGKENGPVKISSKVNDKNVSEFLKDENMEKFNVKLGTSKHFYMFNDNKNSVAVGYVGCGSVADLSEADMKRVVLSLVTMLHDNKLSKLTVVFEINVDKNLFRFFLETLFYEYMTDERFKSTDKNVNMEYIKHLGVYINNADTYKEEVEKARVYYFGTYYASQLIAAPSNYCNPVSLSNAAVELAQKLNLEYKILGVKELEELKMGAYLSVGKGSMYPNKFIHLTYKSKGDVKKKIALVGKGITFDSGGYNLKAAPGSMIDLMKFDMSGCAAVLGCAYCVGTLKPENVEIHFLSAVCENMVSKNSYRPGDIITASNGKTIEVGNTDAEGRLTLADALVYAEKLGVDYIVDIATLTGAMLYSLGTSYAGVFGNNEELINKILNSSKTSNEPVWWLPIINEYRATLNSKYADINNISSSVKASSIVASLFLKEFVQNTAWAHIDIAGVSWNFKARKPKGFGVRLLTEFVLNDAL

[11] = target: T4, Heat shock factor protein 1 (Mus musculus, UniProt P38532); test: enhancement of HSF1-driven luciferase signal – cell-based, NIH3T3, luminescence, dose retest, confirmation (AID 435004); type: functional;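 also: stress induced by proteasome inhibitor MG132 added 30 min after compound; luciferase reporter driven by HSF1 response element in NIH3T3 cells; actives raise luminescence as potentiators of the MG132 stress response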
T4 sequence (P38532 whole entry): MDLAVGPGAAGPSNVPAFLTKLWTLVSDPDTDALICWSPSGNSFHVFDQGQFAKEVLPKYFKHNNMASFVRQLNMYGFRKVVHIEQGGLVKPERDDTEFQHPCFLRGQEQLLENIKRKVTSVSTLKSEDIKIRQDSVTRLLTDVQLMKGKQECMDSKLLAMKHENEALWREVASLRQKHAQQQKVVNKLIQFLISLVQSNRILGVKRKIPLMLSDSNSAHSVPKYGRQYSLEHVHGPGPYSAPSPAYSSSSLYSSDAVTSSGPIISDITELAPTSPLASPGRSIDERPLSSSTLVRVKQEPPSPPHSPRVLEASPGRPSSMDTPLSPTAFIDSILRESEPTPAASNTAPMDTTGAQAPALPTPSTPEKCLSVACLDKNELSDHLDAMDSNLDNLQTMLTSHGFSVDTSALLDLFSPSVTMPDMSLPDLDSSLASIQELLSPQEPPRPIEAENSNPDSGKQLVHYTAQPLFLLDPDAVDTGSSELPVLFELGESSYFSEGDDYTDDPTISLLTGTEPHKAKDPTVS

[12] = target: Cytochrome P450 2C9 (Homo sapiens, UniProt P11712)
Sequence of Cytochrome P450 2C9 (P11712 whole entry): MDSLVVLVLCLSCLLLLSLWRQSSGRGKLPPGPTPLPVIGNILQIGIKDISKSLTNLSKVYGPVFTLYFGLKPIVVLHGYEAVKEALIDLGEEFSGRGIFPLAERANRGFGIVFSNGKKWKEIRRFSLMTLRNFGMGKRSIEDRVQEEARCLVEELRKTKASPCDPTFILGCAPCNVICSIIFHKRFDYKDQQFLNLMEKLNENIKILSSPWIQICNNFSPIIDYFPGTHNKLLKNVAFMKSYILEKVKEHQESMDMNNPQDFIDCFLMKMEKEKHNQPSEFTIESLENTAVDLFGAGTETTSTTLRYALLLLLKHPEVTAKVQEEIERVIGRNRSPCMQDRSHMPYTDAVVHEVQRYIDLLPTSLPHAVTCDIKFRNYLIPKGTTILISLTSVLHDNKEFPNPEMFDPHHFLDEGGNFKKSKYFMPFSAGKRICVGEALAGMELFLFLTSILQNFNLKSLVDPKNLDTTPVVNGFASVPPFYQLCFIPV

[13] = target: T4, Heat shock factor protein 1; test: decrease of HSF1-responsive luciferase luminescence – cell-based, NIH3T3, dose retest, confirmation (AID 2382); type: functional;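 also: NIH3T3 fibroblasts with HSF1-driven luciferase reporter stressed by proteasome inhibitor MG132; luminescence from HSF1-driven luciferase expression after 8 hours of MG132 stress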
[14] = target: Albumin (Bos taurus, UniProt P02769); test: Counterscreen for inhibitors of T-cell receptor (TCR)-CD3 interaction: Fluorescence-based biochemical high throughput dose response assay to identify inhibitors of T-cell receptor (TCR)-CD3 interaction using a TAMRA-labeled BSA probe.; type: functional
Sequence of Albumin (P02769 whole entry): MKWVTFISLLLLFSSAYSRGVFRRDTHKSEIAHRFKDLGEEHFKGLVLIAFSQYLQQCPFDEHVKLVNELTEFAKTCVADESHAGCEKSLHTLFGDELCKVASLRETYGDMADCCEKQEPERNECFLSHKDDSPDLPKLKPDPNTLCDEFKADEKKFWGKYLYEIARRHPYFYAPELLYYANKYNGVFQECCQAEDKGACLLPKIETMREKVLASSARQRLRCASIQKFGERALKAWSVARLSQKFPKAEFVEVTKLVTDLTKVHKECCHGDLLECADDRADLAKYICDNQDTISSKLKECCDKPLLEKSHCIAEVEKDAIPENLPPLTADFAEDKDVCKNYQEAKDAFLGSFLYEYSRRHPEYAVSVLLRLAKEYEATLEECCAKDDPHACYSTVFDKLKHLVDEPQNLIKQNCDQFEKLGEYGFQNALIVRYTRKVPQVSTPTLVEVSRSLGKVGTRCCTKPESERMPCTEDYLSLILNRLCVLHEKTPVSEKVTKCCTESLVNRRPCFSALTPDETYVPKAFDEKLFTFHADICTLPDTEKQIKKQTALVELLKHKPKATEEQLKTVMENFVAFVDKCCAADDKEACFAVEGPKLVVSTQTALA

[15] = Luminescence Cell-Based Dose Retest to Confirm Inhibitors of Cancer Stem Cells. [Related pubchem assays (depositor defined):AID2717, AID2721]; type: functional; details: Homo sapiens
[16] = viability loss of HPDE-C7K cells – cell-based, fluorescence, HTS, primary screen (AID 431); type: functional; details: Homo sapiens
[17] = HPDE-C7 pancreatic duct cell viability loss – fluorescence, HTS (AID 430); type: functional, cell-based; details: Homo sapiens

Compound: CC(C)NC1=NN=C(c2cccs2)CS1
EC50 [1]: > 67.6 µM (inactive)
EC50 [2]: > 67.6 µM (inactive)

IC50 [3]: 52.9 µM (active)
Compound: COc1ccc(OC)c(C2C3=C(O)CCCC3=NC(C)=C2C(=O)Nc2cccnc2)c1 (centres undefined)

Compound: CN1C(=O)C(CC(=O)Nc2ccc(F)cc2)N(Cc2cccs2)C1=S (centres undefined)
EC50 [4]: > 67.5 µM (inactive)
IC50 [5]: > 67.5 µM (inactive)

Compound: CN(C)c1ccc(-c2cc3ccccc3c(=O)o2)cc1
EC50 [1]: > 67.6 µM (inactive)
EC50 [2]: > 67.6 µM (inactive)

IC50 [3]: 22.8 µM (active)
Compound: O=Cc1cn(CC(=O)N2CCCc3ccccc32)c2ccccc12

Compound: Cc1cccc(OCCNC(=O)c2cncc(Br)c2)c1
EC50 [4]: > 67.5 µM (inactive)
IC50 [5]: > 67.5 µM (inactive)

EC50 [6]: 0.728 µM (active)
Compound: CCCC(c1nnnn1Cc1ccco1)N1CCN(c2cc(Cl)ccc2C)CC1 (centres undefined)

EC50 [6]: 331 µM (active)
Compound: CCn1c(SCc2nc(-c3ccccc3)no2)nc2ccccc21

Compound: CCCCN(C(=O)CSc1cc(C)c2ccc(OC)cc2n1)c1c(N)n(Cc2ccccc2)c(=O)[nH]c1=O
EC50 [4]: > 67.5 µM (inactive)
IC50 [5]: > 67.5 µM (inactive)

IC50 [7]: > 100 µM (active)
Compound: COc1ccc2cc(C3(C)NC(=O)N(CC(=O)Nc4c(C)n(C)n(-c5ccccc5)c4=O)C3=O)ccc2c1 (centres undefined)

AC50 [8]: 3.98 µM (inconclusive)
Compound: COC(=O)NC(/C=C/c1ccccc1)[C@]1(C(C)=O)CCCC1=O (some centres undefined)

EC50 [6]: 3.79 µM (active)
Compound: CN(C)S(=O)(=O)N(CC(=O)Nc1ccc2ccccc2c1)c1ccccc1

Compound: Cc1c(C(c2ccccc2Cl)c2c(O)oc3ccccc3c2=O)c(=O)n(-c2ccccc2)n1C (centres undefined)
IC50 [3]: 77.1 µM (active)

Compound: Cc1oc(-c2ccc(-c3ccccc3)cc2)nc1CN(CCO)C(C)C
EC50 [1]: > 67.5 µM (inactive)
EC50 [2]: > 67.5 µM (inactive)

IC50 [7]: > 100 µM (active)
Compound: CN(C)NC1CCS(=O)(=O)C1 (centres undefined)

Compound: Sc1nnc(-c2ccco2)[nH]1
IC50 [9]: 12 µM (active)
IC50 [10]: 11 µM (active)

Compound: COC(=O)[C@@H](Cc1c[nH]c2ccccc12)NC(=O)c1ccc2c(c1)OCO2
EC50 [4]: > 67.6 µM (inactive)
IC50 [5]: > 67.6 µM (inactive)
EC50 [11]: > 260 µM (inactive)

EC50 [6]: 1.96 µM (active)
AC50 [12]: inconclusive
Compound: O=C(NCc1ccc2c(c1)OCO2)C1CC(c2cccc(Br)c2)=NO1 (centres undefined)

IC50 [7]: > 100 µM (active)
EC50 [11]: > 260 µM (inactive)
Compound: CCOc1ccc2[nH]c(SCc3ccc(C(=O)OC)o3)nc2c1

Compound: c1ccc(N2CC3COc4ccccc4C3=N2)cc1 (centres undefined)
EC50 [1]: > 67.4 µM (inactive)
EC50 [2]: > 67.4 µM (inactive)

Compound: CC(/C=N/NC(=O)Cn1cnc2ccccc21)=C\c1ccccc1
EC50 [13]: > 195 µM (not active)
EC50 [4]: > 67.5 µM (inactive)
IC50 [5]: > 67.5 µM (inactive)

Compound: O=C(CSc1nnc(-c2ccccc2O)n1Cc1ccccc1)NNC(=O)c1ccccc1O
IC50 [14]: > 94.1 µM (inactive)
IC50 [3]: 130 µM (active)
AC50 [15]: 7.6 µM (active)

Compound: NNCc1ccccc1 [BENZYLHYDRAZINE HYDROCHLORIDE]
AC50 [8]: 7.94 µM (inconclusive)

AC50 [8]: 25.1 µM (inconclusive)
Compound: O=c1c(O)c(-c2ccccc2)oc2ccccc12 [FLAVONOL]

AC50 [8]: 12.6 µM (inconclusive)
Compound: COc1cc2c(cc1OC)C(=O)OC2 [METAMECONINE]

Compound: CC1=C(/C=C/C(C)=C/C=C/C(C)=C/C(=O)O)C(C)(C)CCC1 [TRETINOIN]
AC50 [8]: 39.8 µM (inconclusive)
EC50 [16]: > 20 µM (not active)
EC50 [17]: > 20 µM (not active)
